Measured values as given in patent US20210346419A1, “COMPOSITIONS AND METHODS FOR DIAGNOSIS AND TREATMENT OF CONDITIONS RELATED TO THE QUALITY OF AGING AND LONGEVITY” (EPITRACKER, INC., priority 2019, published 2021).

How the values were obtained:
Format in all cases: cell-based
SAg human cell system = assay: BioMAP Diversity PLUS primary human cell phenotypic profiling, SAg system; details: 6.7 and/or 20 μM, 24 to 72 hours; for Proliferation, Log10 ratio of treated vs. non-treated systems: T cell proliferation
Description: (§1) It was hypothesized that, given the compounds' associations with lower risks of comorbidities of aging in long-lived dolphins, the compounds of the embodiments would have relevant activities in human cell systems mimicking conditions related to the quality of aging and longevity. To test this hypothesis, 12 primary human cell systems from the BioMAP Diversity PLUS® panel (Eurofins/DiscoverX, Fremont, Calif.) mimicking inflammation and fibrosis relevant to chronic inflammation, liver disease, respiratory disease, skin disease, wound healing, scarring, allergies, asthma, autoimmune disease, cancer, and cardiovascular disease, were exposed to pure, synthetic forms of the selected compounds at one or two concentrations (6.7 and/or 20 μM). Quantitative measurements of 148 biomarker activities across this broad panel, along with comparative analysis of biological activities from known bioactive agents, were used to predict and compare the efficacy and function of the targeted compounds across these systems compared to non-treated control systems. Activated BioMAP systems were incubated with the targeted compounds for 24 to 72 hours. Biomarker activities were considered significant when biomarker values were outside of the 95th percentile significance envelope and had at least one concentration with an effect size >20% (log 10 ratio) >0.1. FIG. 2 describes the different cell systems.
(§2) The summary is of relevant diseases and tissues treated with selected compounds at 6.7 to 20 μM, based on primary human cell phenotypic profiling.

[1] = test system: HDF3CGF human cell system; assay: BioMAP Diversity PLUS primary human cell phenotypic profiling, HDF3CGF system; details: 6.7 and/or 20 μM, 24 to 72 hours
Description: as §1, §2

BT human cell system = assay: BioMAP Diversity PLUS primary human cell phenotypic profiling, BT system; details: 6.7 and/or 20 μM, 24 to 72 hours
Description: as §1, §2

4H human cell system = assay: BioMAP Diversity PLUS primary human cell phenotypic profiling, 4H system; details: 6.7 and/or 20 μM, 24 to 72 hours
Description: as §1, §2

MyoF human cell system = assay: BioMAP Diversity PLUS primary human cell phenotypic profiling, MyoF system; details: 6.7 and/or 20 μM, 24 to 72 hours
Description: as §1, §2

KF3CT human cell system = assay: BioMAP Diversity PLUS primary human cell phenotypic profiling, KF3CT system; details: 6.7 and/or 20 μM, 24 to 72 hours
Description: as §1, §2

BE3C human cell system = assay: BioMAP Diversity PLUS primary human cell phenotypic profiling, BE3C system; details: 6.7 and/or 20 μM, 24 to 72 hours
Description: as §1, §2

3C human cell system = assay: BioMAP Diversity PLUS primary human cell phenotypic profiling, 3C system; details: endothelial cell proliferation, 6.7 and/or 20 μM, 24 to 72 hours
Description: as §1, with “cell systems. […]” for “cell systems.”

## N=C(N)NCCCC(=O)O [4-guanidinobutanoate]
SAg human cell system
  CD38, Log10 ratio of treated vs. non-treated systems: −0.10
  Proliferation, Log10 ratio of treated vs. non-treated systems: −0.13
[1]
  CXCL10, Log10 ratio of treated vs. non-treated systems: −0.11
  CXCL11, Log10 ratio of treated vs. non-treated systems: −0.19
  Collagen III, Log10 ratio of treated vs. non-treated systems: −0.23
  Proliferation, Log10 ratio of treated vs. non-treated systems: −1.09
  TIMP-1, Log10 ratio of treated vs. non-treated systems: −0.14
  VCAM-1 (VCAM1), Log10 ratio of treated vs. non-treated systems: −0.19
BT human cell system
  IL-17A (sIL-17A), Log10 ratio of treated vs. non-treated systems: −0.17
  TNF-α (sTNF-α), Log10 ratio of treated vs. non-treated systems: −0.10
  sIgG, Log10 ratio of treated vs. non-treated systems: −0.49
4H human cell system
  MCP-1, Log10 ratio of treated vs. non-treated systems: −0.12
MyoF human cell system
  Collagen IV, Log10 ratio of treated vs. non-treated systems: 0.13

## CC(=O)N[C@H](C(=O)O)[C@@H](C)O [N-acetylthreonine]
BT human cell system
  sIgG, Log10 ratio of treated vs. non-treated systems: −0.41
4H human cell system
  VEGFR2, Log10 ratio of treated vs. non-treated systems: −0.16

## Nc1ncnc2c1ncn2[C@@H]1O[C@H](CSCC[C@H](N)C(=O)O)[C@@H](O)[C@H]1O [S-adenosylhomocysteine (SAH), S-adenosylhomocysteine]
SAg human cell system
  Proliferation, Log10 ratio of treated vs. non-treated systems: −0.21
KF3CT human cell system
  MMP-9, Log10 ratio of treated vs. non-treated systems: −0.10
  PAI-1, Log10 ratio of treated vs. non-treated systems: −0.28
[1]
  CXCL10, Log10 ratio of treated vs. non-treated systems: −0.19
  CXCL11, Log10 ratio of treated vs. non-treated systems: −0.25
  Collagen III, Log10 ratio of treated vs. non-treated systems: −0.21
  M-CSF, Log10 ratio of treated vs. non-treated systems: −0.19
  MCP-1, Log10 ratio of treated vs. non-treated systems: −0.14
  PAI-1, Log10 ratio of treated vs. non-treated systems: −0.23
  Proliferation, Log10 ratio of treated vs. non-treated systems: −1.10
  TIMP-1, Log10 ratio of treated vs. non-treated systems: −0.14
  VCAM-1 (VCAM1), Log10 ratio of treated vs. non-treated systems: −0.17
BE3C human cell system
  CXCL8, Log10 ratio of treated vs. non-treated systems: −0.13
  CXCL11, Log10 ratio of treated vs. non-treated systems: −0.13
  HLA-DR, Log10 ratio of treated vs. non-treated systems: −0.13
  MMP-9, Log10 ratio of treated vs. non-treated systems: −0.24
3C human cell system
  Proliferation, Log10 ratio of treated vs. non-treated systems: −0.27
BT human cell system
  sIgG, Log10 ratio of treated vs. non-treated systems: −0.29
MyoF human cell system
  Alpha-SM actin, Log10 ratio of treated vs. non-treated systems: −0.18
  Collagen I, Log10 ratio of treated vs. non-treated systems: −0.15
  Collagen III, Log10 ratio of treated vs. non-treated systems: −0.27
  Collagen IV, Log10 ratio of treated vs. non-treated systems: 0.31
  VCAM-1, Log10 ratio of treated vs. non-treated systems: −0.12

## C[C@H](CCC(=O)O)[C@H]1CC[C@H]2[C@@H]3[C@H](O)C[C@@H]4C[C@H](O)CC[C@]4(C)[C@H]3CC[C@]12C [chenodeoxycholate]
SAg human cell system
  CXCL8, Log10 ratio of treated vs. non-treated systems: −0.10

## C[C@H](CCC(=O)O)[C@H]1CC[C@H]2[C@@H]3[C@H](O)C[C@@H]4C[C@H](O)CC[C@]4(C)[C@H]3C[C@H](O)[C@]12C [cholate]
BE3C human cell system
  MMP-1, Log10 ratio of treated vs. non-treated systems: −0.10
